Measurements as given in ChEMBL document CHEMBL1201862, “PubChem BioAssay data set” (2004).
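48-hour exposure; five concentrations; linearly interpolated endpoints. The concentration for 50% growth inhibition is given as GI50.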 Calls of active or inactive are those of the source. No stated cut-off is given here; in the data, active = GI50 up to about 1.1 µM and inactive = higher. Where a SMILES comes first, the peptide text is derived from it. [ ]: non-standard residue; d: D form. Phe(F5) = N[CH](Cc1c(F)c(F)c(F)c(F)c1F)C(=O)O

What was measured:
Experiment in all cases: DTP human tumour cell line panel, 48 h
[1] = tested on: 786-0
[2] = tested on: ACHN
[3] = tested on: CAKI-1
[4] = tested on: DMS-114
[5] = tested on: HL-60
[6] = tested on: HOP-92
[7] = tested on: IGROV-1
[8] = tested on: NCI-H23
[9] = tested on: OVCAR-3
[10] = tested on: OVCAR-4
[11] = tested on: RPMI-8226
[12] = tested on: RXF 393
[13] = tested on: SK-MEL-28
[14] = tested on: SK-MEL-5
[15] = tested on: UACC-257
[16] = tested on: HOP-62
[17] = tested on: MCF7
[18] = tested on: MDA-MB-435
[19] = tested on: PC-3
[20] = tested on: SF-268

| SMILES | GI50 [1] | GI50 [2] | GI50 [3] | GI50 [4] | GI50 [5] | GI50 [6] | GI50 [7] | GI50 [8] | GI50 [9] | GI50 [10] | GI50 [11] | GI50 [12] | GI50 [13] | GI50 [14] | GI50 [15] | GI50 [16] | GI50 [17] | GI50 [18] | GI50 [19] | GI50 [20] |
| --- | --- | --- | --- | --- | --- | --- | --- | --- | --- | --- | --- | --- | --- | --- | --- | --- | --- | --- | --- | --- |
| COc1cc(C2C(C(=O)O)=C(C)Oc3cc4c(cc32)OCO4)cc(OC)c1OC (centres undefined) | 37.2 µM (inactive) | 45.2 µM (inactive) | 9.04 µM (inactive) | 16.2 µM (inactive) | 15.7 µM (inactive) | > 100 µM (inactive) | 58.2 µM (inactive) | 54.2 µM (inactive) | 19.3 µM (inactive) | 50.8 µM (inactive) | > 10 µM (inactive) | 11.6 µM (inactive) | 26.4 µM (inactive) | 23.1 µM (inactive) | 39.6 µM (inactive) | – | – | – | – | – |
| CCN(CC)CCNc1c2ccccc2nc2cccc([N+](=O)[O-])c12 | 0.0136 µM (active) | 0.00665 µM (active) | 0.0158 µM (active) | 0.0241 µM (active) | 0.046 µM (active) | 0.0146 µM (active) | 0.0182 µM (active) | 0.00787 µM (active) | 0.0123 µM (active) | 0.0125 µM (active) | 0.00659 µM (active) | 0.0176 µM (active) | 0.04 µM (active) | 0.00902 µM (active) | 0.0255 µM (active) | 0.00638 µM (active) | 0.00135 µM (active) | 0.00164 µM (active) | 0.00301 µM (active) | 0.012 µM (active) |
| OCCCOC(c1ccccc1)(c1ccccc1)c1ccccc1 | > 100 µM (inactive) | > 100 µM (inactive) | > 100 µM (inactive) | > 100 µM (inactive) | > 100 µM (inactive) | 20.6 µM (inactive) | > 100 µM (inactive) | 75.7 µM (inactive) | > 100 µM (inactive) | > 100 µM (inactive) | > 100 µM (inactive) | < 0.01 µM (active) | > 100 µM (inactive) | > 100 µM (inactive) | > 100 µM (inactive) | 39.7 µM (inactive) | – | – | – | > 100 µM (inactive) |
| COc1ccc(OCC(=O)O)c(C(=O)CCC(=O)O)c1 | > 100 µM (inactive) | > 100 µM (inactive) | – | > 100 µM (inactive) | > 100 µM (inactive) | > 100 µM (inactive) | > 100 µM (inactive) | > 100 µM (inactive) | > 10 µM (inactive) | > 100 µM (inactive) | > 100 µM (inactive) | > 100 µM (inactive) | > 100 µM (inactive) | > 100 µM (inactive) | > 100 µM (inactive) | > 10 µM (inactive) | – | – | – | > 100 µM (inactive) |
| COc1cccc(SSc2cccc(OC)c2C(=O)O)c1C(=O)O | > 100 µM (inactive) | > 100 µM (inactive) | > 100 µM (inactive) | > 100 µM (inactive) | > 100 µM (inactive) | > 100 µM (inactive) | > 100 µM (inactive) | > 100 µM (inactive) | > 100 µM (inactive) | > 100 µM (inactive) | > 100 µM (inactive) | > 100 µM (inactive) | > 100 µM (inactive) | > 100 µM (inactive) | > 100 µM (inactive) | > 100 µM (inactive) | – | – | – | > 100 µM (inactive) |
| COC(=O)C(CC(C)C)NC(=O)C(Cc1c[nH]cn1)NC(=O)CNC(=O)C(NC(=O)C(C)NC(=O)C(Cc1c[nH]c2ccccc12)NC(=O)C(CCC(=O)O)NC(=O)C(N)Cc1c(F)c(F)c(F)c(F)c1F)C(C)C (centres undefined) (H-[Phe(F5)]EWAVGHL-OMe; configuration not given here) | > 12.5 µM (inactive) | > 12.5 µM (inactive) | > 12.5 µM (inactive) | > 100 µM (inactive) | > 12.5 µM (inactive) | – | > 12.5 µM (inactive) | > 12.5 µM (inactive) | > 12.5 µM (inactive) | > 12.5 µM (inactive) | > 12.5 µM (inactive) | > 12.5 µM (inactive) | > 12.5 µM (inactive) | > 12.5 µM (inactive) | > 12.5 µM (inactive) | > 12.5 µM (inactive) | > 12.5 µM (inactive) | > 12.5 µM (inactive) | > 12.5 µM (inactive) | > 12.5 µM (inactive) |
